For 24 molecules, Ki results are on record in patent US7652020B2, “Compounds for the treatment of inflammatory disorders” (Schering Corporation, priority 2004, dated 2010).

The assay deals with T1, purified catalytic domain of recombinant human TACE (rhTACEc) (Homo sapiens, UniProt P78536, N452Q/S266A).
T1 construct: Residue 215 to 477 with two mutation (S266A and N452Q) and a 6×His tail; 6xHis (C); made in house; host or cells: baculovirus/Hi5 insect cells
The assay can be described thus: TACE kinetic assay: cleavage of internally quenched peptide substrate SPDL-3, fluorescence. The class given is biochemical. Particulars: TACE inhibitory activity, class symbols; read-out: Ki. On the procedure: TACE activity is determined by a kinetic assay measuring the rate of increase in fluorescent intensity generated by TACE catalyzed cleavage of an internally quenched peptide substrate (SPDL-3). […] It is purified from the baculovirus/Hi5 cells expression system using affinity chromatography. […] MCA is (7-Methoxycoumarin-4-yl)acetyl. Dpa is N-3-(2,4-Dinitrophenyl)-L-2,3-diaminopropionyl.
A 50 μl assay mixture contains 20 mM HEPES, pH 7.3, 5 mM CaCl2, 100 μM ZnCl2, 2% DMSO, 0.04% Methylcellulose, 30 μM SPDL-3, 70 pM rhTACEc and a test compound. RhTACEc is pre-incubated with the testing compound for 90 min. at 25° C. Reaction is started by addition of the substrate. […] Rate of enzymatic reaction is shown as Units per second. Effect of a test compound is shown as % of TACE activity in the absence of the compound.

pKi: −log10 of the molar value.

T1 sequence (P78536 215-477 S266A/N452Q): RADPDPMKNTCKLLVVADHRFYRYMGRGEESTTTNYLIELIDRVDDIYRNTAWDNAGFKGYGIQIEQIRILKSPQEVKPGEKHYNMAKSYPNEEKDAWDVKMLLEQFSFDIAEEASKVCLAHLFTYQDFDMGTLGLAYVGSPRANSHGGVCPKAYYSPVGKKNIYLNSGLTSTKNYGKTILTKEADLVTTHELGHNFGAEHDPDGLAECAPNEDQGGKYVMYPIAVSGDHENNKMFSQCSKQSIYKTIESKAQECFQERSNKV

Consider `N#Cc1cc(F)ccc1N1CCC(CNC(=O)[C@H](O)[C@@H](O)C(=O)N2C3CCC2CC3)CC1` [Compound 2094], for which the pKi is under 6.00. For `C[C@@H](NC(=O)[C@H](O)[C@@H](O)C(=O)N1C2CCC1CC2)c1ccc(-n2cccn2)cc1` [Compound 2095], the pKi is 6.00 to 7.00. Then `C[C@@H](NC(=O)[C@H](O)[C@@H](O)C(=O)N1C2CCC1c1cc(F)c(F)cc12)c1ccc(-n2cccn2)cc1` [Compound 2096], with 6.00 to 7.00; and `C[C@@H](NC(=O)[C@H](O)[C@@H](O)C(=O)N1C[C@@H]2C[C@H](C1)c1cccc(=O)n1C2)c1ccc(-n2cccn2)cc1` [Compound 2097], with 6.00 to 7.00; and `C[C@@H](NC(=O)[C@H](O)[C@@H](O)C(=O)N1CC2CC1CN2c1ccc(Cl)cc1)c1ccc(-n2cccn2)cc1` (stereo partly drawn) [Compound 2099], with 6.00 to 7.00.

As to `O=C(NCC1CCN(c2ccc(F)cc2Br)CC1)[C@H](O)[C@@H](O)C(=O)N1Cc2ccccc2C1` [Compound 2139], the negative logarithm of the Ki (pKi) is over 7.70.

In the case of `O=C(NCC1CCN(c2cccc(F)c2OC(F)(F)F)CC1)[C@H](O)[C@@H](O)C(=O)N1CCCC1` [Compound 2140], the pKi was under 6.00. Then `CCOc1c(F)cccc1N1CCC(CNC(=O)[C@H](O)[C@@H](O)C(=O)N2CCCC2)CC1` [Compound 2141], with under 6.00. The value for `O=C(NCC1CCN(c2ccc(F)cc2OCC(F)(F)F)CC1)[C@H](O)[C@@H](O)C(=O)N1CCCC1` [Compound 2142] was 7.00 to 7.70.

On to `C[C@@H]1CN(c2ccccc2C#N)CCC1CNC(=O)[C@H](O)[C@@H](O)C(=O)N1Cc2ccccc2C1` (stereo partly drawn) [Compound 2143], for which the pKi is over 7.70. Consider `C[C@@H]1CN(c2ccccc2C#N)CCC1CNC(=O)[C@H](O)[C@@H](O)C(=O)N1CCC[C@@H]1c1ccccc1` (stereo partly drawn) [Compound 2144], for which the pKi is over 7.70. Consider `C[C@H]1CN(c2ccccc2C#N)CCC1CNC(=O)[C@H](O)[C@@H](O)C(=O)N1CCC[C@@H]1c1ccccc1` (stereo partly drawn) [Compound 2145], for which the pKi was 6.00 to 7.00. Then `C[C@H]1CN(c2ccccc2C#N)CCC1CNC(=O)[C@H](O)[C@@H](O)C(=O)N1Cc2ccccc2C1` (stereo partly drawn) [Compound 2146], with 6.00 to 7.00; and `N#Cc1cc(F)ccc1N1C[C@@H]2C(CNC(=O)[C@H](O)[C@@H](O)C(=O)N3CCCC3)[C@@H]2C1` (stereo partly drawn) [Compound 2147], with 6.00 to 7.00; and `N#Cc1cc(F)ccc1N1[C@@H]2CC[C@H]1CC(CNC(=O)[C@H](O)[C@@H](O)C(=O)N1CCC[C@@H]1c1ccccc1)C2` (stereo partly drawn) [Compound 2148], with 6.00 to 7.00. Then `N#Cc1cc(F)ccc1N1[C@@H]2CC[C@H]1CC(CNC(=O)[C@H](O)[C@@H](O)C(=O)N1Cc3ccccc3C1)C2` (stereo partly drawn) [Compound 2149], with 6.00 to 7.00; and `C[C@@H]1CN(c2ccc(F)cc2C#N)CCC1CNC(=O)[C@H](O)[C@@H](O)C(=O)N1CCCC1` (stereo partly drawn) [Compound 2150], with 7.00 to 7.70; and `Cc1nc2c(s1)CN(C(=O)[C@H](O)[C@@H](O)C(=O)NCC1CCN(c3ccccc3C#N)CC1C)C2` (stereo partly drawn) [Compound 2151], with over 7.70. The value for `N#Cc1ccccc1N1CCC2(CC1)CC2NC(=O)[C@H](O)[C@@H](O)C(=O)N1CCC[C@@H]1c1ccccc1` (stereo partly drawn) [Compound 2152] was under 6.00; that for `N#Cc1ccccc1N1CCC2(CC1)CC2NC(=O)[C@H](O)[C@@H](O)C(=O)N1CCC[C@@H]1c1ccccc1` (stereo partly drawn) [Compound 2153] was under 6.00; that for `N#Cc1ccccc1N1CCC2(CC1)CC2NC(=O)[C@H](O)[C@@H](O)C(=O)N1Cc2ccccc2C1` (stereo partly drawn) [Compound 2154] was under 6.00.

For `N#Cc1ccccc1N1CCC2(CC1)CC2NC(=O)[C@H](O)[C@@H](O)C(=O)N1Cc2ccccc2C1` (stereo partly drawn) [Compound 2155], the pKi is under 6.00. The value for `NC[C@@H]1[C@H]2CN(C(=O)[C@H](O)[C@@H](O)C(=O)NCC3CCN(c4ccccc4OC(F)(F)F)CC3)C[C@@H]12` [Compound 2156] was 7.00 to 7.70.

As to `CC(C)(NC(=O)[C@H](O)[C@@H](O)C(=O)N1CCCC1)C1CCN(c2ccc(F)cc2C#N)CC1` [Compound 2157], the pKi is 7.00 to 7.70.

Broadly, the pKi is the Ki on a negative log10 scale, so that one unit is a factor of ten.
